Earlier results as cited in patent US20150196708A1, “SYSTEMS, METHODS AND COMPOSITIONS FOR IMPROVED TREATMENT OF ACIDOSIS” (The Regents of the University of California, priority 2012, published 2015).

What was measured:
patients with acidosis = conditions: literature (Cooper et al., 1990; Leung et al., 1994)
[1] = room temperature; incorporates CO2(aq)/H2CO3(aq) equilibrium

Compound | clinical benefit in human studies (patients with acidosis) | Ka1 (deprotonation) [1]
O=C([O-])O.[Na+] [bicarbonate, sodium bicarbonate] | no more beneficial effect than the administration of similar quantities of sodium chloride | 
O=C(O)O [carbonic acid] |  | 4.3×10^−7
